Reference: US7893220B2, “Busulfan immunoassay” (Saladax Biomedical Inc., priority 2004, dated 2011)

Experiments:
[1] = test system: busulfan antibodies (antisera of example 7); assay: Indirect competitive microtiter plate immunoassay (ELISA), busulfan derivative 11-BSA sensitized plates; type: binding, mouse; settings: antibodies to Busulfan-KLH (example 7); plate coating Busulfan-BSA conjugate example 6, derivative 11; ratio of IC50 busulfan to IC50 analyte
Method: (§1) Ten Female BALB/c mice were immunized i.p. with 100 μg/mouse of Busulfan-BTG immunogen prepared in example 3 or with Busulfan-KLH immunogen prepared in example 4, emulsified in Complete Freund's Adjuvant. Mice were boosted once four weeks after the initial injection with 100 μg/mouse of the same immunogens emulsified in Incomplete Freund's Adjuvant. Ten or 28 days after the boost test bleeds from each mouse were obtained by orbital bleed. The anti-serum from these test bleeds contained Busulfan antibodies evaluated in Examples 9 , 10a and 10b.
(§2) The ELISA method for measuring busulfan concentrations was performed in polystyrene microtiter plates (Nunc MaxiSorp C8 or F8 Immunomodules) optimized for protein binding and containing 96 wells per plate. Each well was coated with busulfan-BSA conjugate (prepared as in example 6) by adding 300 μL of busulfan-BSA conjugate at 2.5 μg/mL in 7.5 μg/mL BSA, 0.05M sodium bicarbonate, pH=9.6, and incubating for three hours at room temperature. The wells were washed with 0.05M sodium bicarbonate, pH 9.6 and then were blocked with 400 μL of 5% sucrose, 0.2% sodium caseinate solution for 30 minutes at room temperature. After removal of the post-coat solution the plates were dried at 37° C. overnight.
(§3) The ELISA method for screening busulfan antibodies (produced in example 7) was performed with the microtiter plates that were sensitized with busulfan-BSA as described in examples 8a and 8b. The antibody screening assay was performed by diluting the antisera containing busulfan antibodies (of example 7) to 1:100, 1:1,000, 1:10,000 and 1:100,000 in phosphate buffered saline containing 0.1% BSA and 0.01% thimerosal. To each well of busulfan-BSA sensitized wells (prepared in examples 8a and 8b) 100 μL of diluted antibody was added and incubated for 10 minutes at room temperature with shaking. During this incubation antibody binds to the busulfan-conjugate in the well. […] Following the incubation for color development, 50 μL of stop solution (1.5% sodium fluoride in di H2O) was added to each well to stop the color development and after 10 seconds of shaking the absorbance was determined at 650 nm (Molecular Devices Plate Reader). The amount of antibody in a well was proportional to the absorbance measured and was expressed as the dilution (titer) resulting in an absorbance of 1.5. Titers were determined by graphing Log antibody dilution of the antibody measured (x-axis) vs. absorbance 650 nm (y-axis) and extrapolating the titer at an absorbance of 1.5. The titer determined the concentration (dilution) of antibody used in the indirect competitive Microtiter plate assay described in examples 10a and 10b. […]

[2] = test system: busulfan antibodies (antisera of example 7); assay: Indirect competitive microtiter plate immunoassay (ELISA), busulfan derivative 7-BSA sensitized plates; type: binding, mouse; settings: antibodies to Busulfan-KLH (example 7); plate coating Busulfan-BSA conjugate example 5, derivative 7; ratio of IC50 busulfan to IC50 analyte
Method: as §1
as §2, with “5)” for “6)”, “10” for “2.5”, “in” for “in 7.5 μg/mL BSA,”
as §3, with “well. The wells of the plates were washed three times with 0.02 M TRIS, 0.9% NaCl, 0.5% Tween-80 and 0.001% Thimerosal, pH 7.8 to remove any unbound antibody.” for “well.”

SMILES | Cross-Reactivity of Competitive Immunoassay [1] | Cross-Reactivity of Competitive Immunoassay [2]
CS(=O)(=O)OCCCCOS(C)(=O)=O [Busulfan] | 100% | 100%
C1CCSC1 [Tetrahydrothiophene, tetrahydrothiophene] | <0.24% | <0.4%
O=S1(=O)CCC(O)C1 (centres unmarked) [Tetrahydrothiophene-3-ol-1,1-dioxide, tetrahydrothiophene-3-ol-1,1-dioxide] | <0.24% | <0.4%
O=S1(=O)CCCC1 [Tetramethylene sulfone, tetramethylene sulfone] | <0.24% | <0.4%
